The supplement of paper PMC10307832

Key:
Assay in all cases: relative viability (nuclei count vs DMSO), 5 days (fraction); higher = more cells survive
Kobe2602 + Crizotinib = compound: C1=CC(=CC=C1NC(=S)NNC2=C(C=C(C=C2[N+](=O)[O-])C(F)(F)F)[N+](=O)[O-])F [Kobe2602] + C[C@@H](Oc1cc(-c2cnn(C3CCNCC3)c2)cnc1N)c1c(Cl)ccc(F)c1Cl [Crizotinib] (partner 1 µM)
Method in brief: (§1)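 Cells from lung cancer lines were seeded into 1536-well plates and, one day later, dosed by pin tool. Treatments were either a single drug or a fixed dose of an anchor drug with five library-drug doses (not always all listed) in √10 steps. After 5 days, nuclei were stained in a one-step fixation (final 0.05% Triton X-100, 1% formaldehyde, 1 ug/ml Hoechst) and counted on 4× images, and relative viability is the treated-to-vehicle nuclei ratio, as the median of duplicate plates.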

Zosuquidar + Tozasertib = compound: O[C@@H](COc1cccc2ncccc12)CN1CCN([C@@H]2c3ccccc3[C@@H]3[C@H](c4ccccc42)C3(F)F)CC1 [Zosuquidar] + Cc1cc(Nc2cc(N3CCN(C)CC3)nc(Sc3ccc(NC(=O)C4CC4)cc3)n2)n[nH]1 [Tozasertib] (partner 0.1 µM)
Method in brief: as §1

Zosuquidar + Linsitinib = compound: O[C@@H](COc1cccc2ncccc12)CN1CCN([C@@H]2c3ccccc3[C@@H]3[C@H](c4ccccc42)C3(F)F)CC1 [Zosuquidar] + C[C@]1(O)C[C@@H](c2nc(-c3ccc4ccc(-c5ccccc5)nc4c3)c3c(N)nccn32)C1 [Linsitinib] (partner 1 µM)
Method in brief: as §1

Cabozantinib + Lapatinib = compound: COc1cc2nccc(Oc3ccc(NC(=O)C4(C(=O)Nc5ccc(F)cc5)CC4)cc3)c2cc1OC [Cabozantinib] + CS(=O)(=O)CCNCc1ccc(-c2ccc3ncnc(Nc4ccc(OCc5cccc(F)c5)c(Cl)c4)c3c2)o1 [Lapatinib] (partner 2 µM)
Method in brief: as §1

Row | Cell Line | relative viability (Kobe2602 + Crizotinib; first compound 0.2 µM) | relative viability (Kobe2602 + Crizotinib; first compound 0.6325 µM) | relative viability (Kobe2602 + Crizotinib; first compound 2 µM) | relative viability (Kobe2602 + Crizotinib; first compound 6.325 µM) | relative viability (Kobe2602 + Crizotinib; first compound 20 µM) | relative viability (Zosuquidar + Tozasertib; first compound 0.01 µM) | relative viability (Zosuquidar + Tozasertib; first compound 0.03162 µM) | relative viability (Zosuquidar + Tozasertib; first compound 0.1 µM) | relative viability (Zosuquidar + Tozasertib; first compound 0.3162 µM) | relative viability (Zosuquidar + Tozasertib; first compound 1 µM) | relative viability (Zosuquidar + Linsitinib; first compound 0.01 µM) | relative viability (Zosuquidar + Linsitinib; first compound 0.03162 µM) | relative viability (Zosuquidar + Linsitinib; first compound 0.1 µM) | relative viability (Zosuquidar + Linsitinib; first compound 0.3162 µM) | relative viability (Zosuquidar + Linsitinib; first compound 1 µM) | relative viability (Cabozantinib + Lapatinib; first compound 0.02 µM) | relative viability (Cabozantinib + Lapatinib; first compound 0.06325 µM) | relative viability (Cabozantinib + Lapatinib; first compound 0.2 µM) | relative viability (Cabozantinib + Lapatinib; first compound 0.6325 µM) | relative viability (Cabozantinib + Lapatinib; first compound 2 µM)
1 | LC-2-ad | 0.433 | 0.465 | 0.464 | 0.547 | 0.494 | 0.461 | 0.491 | 0.51 | 0.522 | 0.463 | 0.776 | 0.857 | 0.873 | 0.797 | 0.895 | 0.938 | 1.04 | 0.876 | 0.622 | 0.253
2 | LCLC-97TM1 | 0.405 | 0.336 | 0.242 | 0.372 | 0.282 | 0.202 | 0.266 | 0.167 | 0.208 | 0.212 | 0.204 | 0.177 | – | 0.174 | 0.171 | – | 1.21 | 0.927 | 1.13 | 1.09
3 | LK-2 | 0.248 | 0.273 | 0.231 | 0.271 | 0.257 | 0.171 | 0.163 | 0.174 | 0.172 | 0.183 | 0.663 | 0.745 | 0.515 | 0.722 | 0.574 | – | 1.15 | 0.929 | 0.948 | 0.856
4 | LOU-NH91 | 0.736 | 0.763 | 0.745 | 0.707 | 0.77 | 0.697 | 0.624 | – | 0.706 | 0.71 | 0.937 | 0.927 | 0.736 | 1.03 | 0.913 | 0.687 | 0.776 | 0.781 | 0.711 | 0.712
5 | LU99A | 0.557 | 0.601 | 0.571 | 0.607 | 0.641 | 0.215 | 0.229 | 0.257 | 0.254 | 0.271 | 0.5 | 0.54 | 0.483 | 0.539 | 0.659 | 0.896 | 1.07 | 0.985 | 0.996 | 0.931
6 | LXF-289 | 0.789 | 0.826 | 0.826 | 0.792 | 0.791 | 0.244 | 0.2 | 0.179 | 0.222 | 0.187 | 0.888 | 1 | 0.94 | 0.981 | 1.03 | 0.91 | 0.922 | 0.896 | 0.918 | 0.92
7 | NCI-H23 | 0.5 | 0.604 | 0.392 | 0.499 | 0.619 | 0.393 | 0.629 | 0.537 | 0.34 | 0.362 | 0.601 | 0.449 | 0.483 | 0.504 | 0.675 | – | 1.37 | 1.07 | 1.04 | 0.885
8 | NCI-H322M | 0.81 | 0.95 | 0.995 | 0.893 | 0.867 | 0.461 | 0.54 | 0.383 | 0.445 | 0.519 | 0.917 | 0.859 | 0.729 | 0.851 | 0.922 | 0.454 | 0.632 | – | 0.584 | 0.58
